# Experimental data as given in patent US8592405B2, “Synergistic antimicrobial composition” (Dow Global Technologies LLC, priority 2009, dated 2013).
# Values joined by “and” are separate entries in the source; they are usually repeats but may differ in a detail not shown here. Equal entries are not always repeated.
# Assays:
# Assay type in all cases: cell-based
# [1] = tested on: Aspergillus niger (An); test: Fungal efficacy testing, modified ASTM 5590 (12-well, dry paint film); settings: three weeks; for % inhibition: at the Total conc; for Total conc, ppm: total biocide in paint taken as minimum inhibitory concentration, 30 C
# Description: Samples of white acrylic latex paint free of biocides were prepared in 50 ml aliquots. Each biocide was post added to give the necessary active ingredient concentration in the paint. The total biocides concentrations tested were 750, 1500, 2500 and 5000 ppm. After biocides addition, each sample was hand mixed for a minimum of 30 sec, followed by a 3 min run on the paint shaker (RED DEVIL). Each of the paint samples as well as a control sample (containing no biocide) were used to prepare films on black plastic-vinyl chloride/acetate copolymer panels (LENETA, Mahwah, N.J.) using a 3 mil bird bar applicator. The panels were thoroughly dried for 5 days avoiding direct exposure to sunlight. Square discs (15 mm^2) were cut out from each panel and were used as the substrate for fungal and algal efficacy tests. This sample size allowed for an agar border when the sample disc was placed into the well of the test plate.
# (§1) The appropriate media (BOLD'S 3N for Chlorophytes, BG-11 for Cyanobacteria, and PDA for fungi) were used to support microbial growth. The test plates were maintained at room temp (25° C.-26° C.), in a cycled light-dark environment, for 3 weeks for algae. Plates for fungal challenge tests were maintained at 30C for three weeks. At the end of incubation period the samples were scored for percent area covered by visible microbial growth.
# ASTM 5590 is a standard accelerated test method for determining resistance of various coatings (including paints) to fungal defacement. To accommodate for high-throughput screening, this method was scaled down from petri plates to 12-well plates. To set up the test, an agar plug was placed at the bottom of each well of the sterile 12-well plate. A single coupon was placed with a pair of sterile forceps at the center of the agar plug (on top) with the painted surface facing upwards. Each well was inoculated with 150 μl of organism (1×10^6 cfu/ml) making sure that the whole surface (paint film as well as the agar surrounding it) was evenly covered. The plates were incubated at 30° C. in presence of moisture, for a period of three weeks. The total percent area covered was evaluated and recorded at the end of each week after the 2nd week and recorded in increments of 5%. […]
# [2] = tested on: Aa + Ap (Alternaria alternata + Aureobasidium pullulans); test: Fungal efficacy testing, modified ASTM 5590 (6-well, mixed inoculum, Example 4); settings: four weeks; for Total conc, ppm: Aa + Ap mixed inoculum, NE = no end point at the concentration tested; for % inhibition: Aa + Ap, at the Total conc
# Description: [The source words this procedure for another target and reports this target under the same test.] The SI is calculated based on F. C. Kull et.
# (§2) A single or blend of biocides was post added into white acrylic latex paint free of biocides to give a maximum total active ingredient/s concentration tested. This paint was then diluted with a biocide free acrylic latex paint at concentrations range of 75 to 12.5% w/w to give desired concentrations for the testing. Depending on the type of biocide blends tested, the total biocides concentrations varies from 200 to 5000 ppm. After biocides addition or dilution each sample was hand mixed for at least a minute until uniformity is achieved. Each of the paint samples as well as a control sample (containing no biocide) were used to prepare films on black plastic-vinyl chloride/acetate copolymer panels (LENETA, Mahwah, N.J.) using a 3 mil bird bar applicator. The panels were thoroughly dried for at least 2 days avoiding direct exposure to sunlight. Square discs (0.5 inch^2, 13 mm^2) were cut out from each panel and were used as the substrate for fungal and algal efficacy tests. This sample size allowed for an agar border when the sample disc was placed into the well of the test plate. Each sample was tested in duplicate
# as §1, with “for four” for “for 3”, “at 30 C” for “at 30C”, “for four” for “for three”, “of the” for “of”
# ASTM 5590 is a standard accelerated test method for determining resistance of various coatings (including paints) to fungal defacement. To accommodate for high-throughput screening, this method was scaled down from petri plates to 6-well plates. To set up the test, an agar plug was placed at the bottom of each well of the sterile 6-well plate. A single coupon was placed with a pair of sterile forceps at the center of the agar plug (on top) with the painted surface facing upwards. Fungal inoculums were prepared by mixing equal concentrations (1×10^6 cfu/ml) and equal volumes (depending on number of samples to be tested) of like growing organisms. Cladosporium herbarum was mixed with Aureobasidium pullulans. Aspergillus niger was mixed with Penicillium funiculosum. Alternaria alternata was mixed with Trichoderma viride. Each well was inoculated with 400 μl of organism mixture (1×10^6 cfu/ml) making sure that the whole surface (paint film as well as the agar surrounding it) was evenly covered. The plates were incubated at 30° C. in presence of moisture, for a period of four weeks. The total percent area covered was evaluated and recorded at the end of each week after the 2nd week and recorded in increments of 5%.
# [3] = tested on: Cp + To + Ta (Calotrix parientina, Trentepohlia odorata, Trentepohlia aurea); test: Algal efficacy testing, modified ASTM 5589 (6-well, mixed inoculum, Example 4); settings: four weeks; for Total conc, ppm: Cp + To + Ta mixed inoculum, NE = no end point at the concentration tested; for % inhibition: Cp + To + Ta, at the Total conc
# Description: as §2
# as §1, with “for four” for “for 3”, “at 30 C” for “at 30C”, “for four” for “for three”, “of the” for “of”
# (§3) ASTM 5589 is a standard accelerated test method for determining resistance of various coatings (including paints) to algal defacement. To accommodate for high-throughput screening, this method was scaled down from petri plates to 6-well plates. A single coupon was placed with a pair of sterile forceps at the center of the agar plug (on top) with the painted surface facing upwards. Algal inoculums were prepared by mixing equal concentrations (1×10^6 cfu/ml) and equal volumes (depending on number of samples to be inoculated) of like growing organisms. In this study, Gloeocapsa sp. and Oscillatoria sp. were a mix of cyanobacteria grown on BG-11 media. Chlorella sp., Chlorella kessleri, and Nostoc commune are unicellular chlorphytes that were mixed and grown on Bold media. Trentepohlia aurea, Trentepohlia odorata, and Calotrix parientina are filamentous algae that were mixed and grown on Bold media. Each well was inoculated with 400 μl of organism mixture (1×10^6 cfu/ml) making sure that the whole surface (paint film as well as the agar surrounding it) was evenly covered. The plates were incubated at room temp (25° C.-26° C.) with cyclic exposure to light (OTT-Lite model #OTL4012P, 40 Watt, 26 KLumen) and dark phases, for a period of four weeks. The total area covered was evaluated at the end of each week according to percent area covered in 5% increments. While rating the plates, notations were made for zones of inhibition.
# [4] = tested on: Cs + Ck + Nc (Chlorella sp., Chlorella kessleri, Nostoc commune); test: as above; settings: four weeks; for Total conc, ppm: Cs + Ck + Nc mixed inoculum, NE = no end point at the concentration tested; for % inhibition: Cs + Ck + Nc, at the Total conc
# Description: as §2
# as §1, with “for four” for “for 3”, “at 30 C” for “at 30C”, “for four” for “for three”, “of the” for “of”
# as §3
SMILES,% inhibition [1],"Total conc, ppm [1]","Total conc, ppm [2]",% inhibition [2],"Total conc, ppm [3]",% inhibition [3],"Total conc, ppm [4]",% inhibition [4]
"CCCCCCCCn1sc(Cl)c(Cl)c1=O [DCOIT, 4,5-dichloro-2-n-octyl-4-isothiazolin-3-one]",75%,5000 ppm,862.5 ppm,100%,575 ppm,100%,575 ppm,100%
"Cc1ccc(S(=O)(=O)C(I)I)cc1 [DIMTS, diiodomethyl-p-tolylsulfone]",75%,750 ppm,1250 ppm,100%,1875 ppm,95%,1250 ppm,100%
"CN(C)C(=O)Nc1cccc(C(F)(F)F)c1 [Fluometuron, 1,1-dimethyl-3-(α,α,α-trifluoro-m-tolyl)urea]",–,2500 ppm and 5000 ppm,5000 ppm,0%,1250 ppm,100%,1250 ppm,100%
